From patent US20200188237A1, “ENDODONTIC FORMULATIONS CONTAINING CYSTEAMINE AND CYSTEAMINE DERIVATIVES AND USES THEREOF” (University of Florida Research Foundation, Inc., priority 2017, published 2020)

How the values were obtained:
[1] = tested on: Enterococcus faecalis (OG1RF); experiment: Bacterial removal from root canals of inoculated extracted human mandibular molars, instrumentation/irrigation, qPCR; assay type: cell-based; conditions: pre- vs post-instrumentation/irrigation, human mandibular molars incubated 14 days anaerobic
Experimental: (§1) Forty human mandibular molars were accessed, sterilized, inoculated with Enterococcus faecalis (OG1RF) and Fusobacterium nucleatum (ATCC10953), and incubated for 14 days under anaerobic conditions. Teeth were divided into 3 groups (n=10): 1) 6.15% NaOCl, 2) 8.25% NaOCl, 3) Cysteamine. Controls (n=5): negative without inoculation and positive without instrumentation/irrigation. Mesiobuccal and mesiolingual canals were instrumented using Vortex Blue to 30/.04 and the corresponding irrigant, followed by neutralization with EDTA and saline. Samples were collected pre- and post-instrumentation/irrigation. Total DNA was extracted and quantitative real-time PCR was performed. Data were analyzed using one-way ANOVA with Bonferroni's multiple comparisons (p<0.05). See FIG. 1 for a schematic representation of the methods.

[2] = tested on: Fusobacterium nucleatum (ATCC10953); experiment: as above; assay type: cell-based; conditions: pre- vs post-instrumentation/irrigation, human mandibular molars incubated 14 days anaerobic
Experimental: as §1

| Compound | percent reduction in Enterococcus faecalis ([1]; Cysteamine irrigant) [%] | percent reduction in Fusobacterium nucleatum ([2]; Cysteamine irrigant) [%] | percent reduction in Enterococcus faecalis ([1]; 6.15% NaOCl irrigant) [%] | percent reduction in Enterococcus faecalis ([1]; 8.25% NaOCl irrigant) [%] | percent reduction in Fusobacterium nucleatum ([2]; 6.15% NaOCl irrigant) [%] | percent reduction in Fusobacterium nucleatum ([2]; 8.25% NaOCl irrigant) [%] |
| --- | --- | --- | --- | --- | --- | --- |
| NCCS [Cysteamine] | 60 | 68.5 |  |  |  |  |
| OCl [NaOCl, sodium hypochlorite] |  |  | 49 | 54 | 59.9 | 63.4 |
